From ChEMBL document CHEMBL5055644, “Cysteine derivatives as acetyl lysine mimics to inhibit zinc-dependent histone deacetylases for treating cancer” (Eur J Med Chem, 2021)
Calls of active or inactive are those of the source. The rule behind the calls is not given here.

Tests used:
[1] = test system: A549; assay: Antitumour activity against human A549 cells xenografted in BALB/c mouse assessed as tumor growth inhibition at 25 mg/kg,iv administered for 3 weeks relative to control; type: functional; settings: A549, 504 h, read-out: TGI
[2] = test system: A549; assay: Antitumor activity against human A549 cells xenografted in BALB/c mouse assessed as tumor growth inhibition at low dose when administered intratumorally for 21 days relative to control; type: functional; settings: route it(Intratumoral); time 21 day
[3] = test system: Mus musculus; assay: Toxicity in BALB/c mouse xenografted with human A549 cells assessed as effect on body weight at 25 to 50 mg/kg, iv measured after 21 days; type: organism-based; settings: in vivo, 504 h, dose 25-50 mg/kg, time 21 day
[4] = Acute toxicity in BALB/c mouse assessed as maximum tolerated dose; settings: in vivo
[5] = test system: A549; assay: Induction of apoptosis in human A549 cells at 1 to 10 uM after 48 hrs by Annexin-V/propidium iodide staining based flow cytometric analysis; type: functional, cell-based; settings: dose 1-10 µM
[6] = target: Protein deacetylase HDAC6 (Mus musculus) (UniProt Q9Z2V5); assay: In vivo inhibition of HDAC6 in BALB/c mouse xenografted with human A549 cells assessed as increase in alpha tubulin acetylation at 25 to 50 mg/kg, iv administered for 3 weeks by immunohistochemical analysis; type: functional, organism-based; settings: dose 25-50 mg/kg
Sequence of Protein deacetylase HDAC6 (Mus musculus) (Q9Z2V5 whole entry): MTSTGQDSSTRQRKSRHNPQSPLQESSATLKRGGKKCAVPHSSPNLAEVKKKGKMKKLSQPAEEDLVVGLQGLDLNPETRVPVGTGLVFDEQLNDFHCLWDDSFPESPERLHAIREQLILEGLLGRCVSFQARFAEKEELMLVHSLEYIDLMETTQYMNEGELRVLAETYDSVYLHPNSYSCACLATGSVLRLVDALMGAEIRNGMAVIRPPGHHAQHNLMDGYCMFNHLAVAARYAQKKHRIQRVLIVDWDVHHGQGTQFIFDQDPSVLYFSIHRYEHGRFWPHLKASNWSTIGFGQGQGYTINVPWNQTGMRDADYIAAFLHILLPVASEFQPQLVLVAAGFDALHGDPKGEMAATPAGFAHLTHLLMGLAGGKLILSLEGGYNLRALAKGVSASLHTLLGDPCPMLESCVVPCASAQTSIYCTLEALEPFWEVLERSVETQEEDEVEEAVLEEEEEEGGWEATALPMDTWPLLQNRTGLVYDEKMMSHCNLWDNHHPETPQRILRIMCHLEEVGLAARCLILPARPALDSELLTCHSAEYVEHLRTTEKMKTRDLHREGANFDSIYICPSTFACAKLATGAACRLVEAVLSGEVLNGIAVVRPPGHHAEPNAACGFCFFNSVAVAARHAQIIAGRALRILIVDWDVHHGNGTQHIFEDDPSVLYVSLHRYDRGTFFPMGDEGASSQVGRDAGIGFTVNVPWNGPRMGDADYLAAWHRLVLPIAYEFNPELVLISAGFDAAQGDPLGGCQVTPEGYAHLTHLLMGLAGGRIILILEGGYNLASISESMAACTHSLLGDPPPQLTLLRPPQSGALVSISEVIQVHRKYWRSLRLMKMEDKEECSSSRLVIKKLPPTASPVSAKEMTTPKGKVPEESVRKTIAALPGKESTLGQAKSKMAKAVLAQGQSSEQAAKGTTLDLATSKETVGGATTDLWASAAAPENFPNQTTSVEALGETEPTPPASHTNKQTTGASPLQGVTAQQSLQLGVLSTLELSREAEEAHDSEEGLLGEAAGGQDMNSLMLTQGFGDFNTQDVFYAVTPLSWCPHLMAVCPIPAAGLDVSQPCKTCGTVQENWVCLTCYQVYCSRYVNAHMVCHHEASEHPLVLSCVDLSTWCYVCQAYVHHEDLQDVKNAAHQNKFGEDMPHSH

[7] = test system: A549; assay: Upregulation of p21 in human A549 cells up to 10 uM measured after 8 hrs by Western blot analysis; type: functional, cell-based
[8] = Acute toxicity in po dosed BALB/c mouse assessed as lethal dose; type: organism-based; settings: in vivo
[9] = test system: Mus musculus; assay: In vivo inhibition of HDAC in BALB/c mouse xenografted with human A549 cells assessed as increase in H3 histone at 25 to 50 mg/kg, iv administered for 3 weeks by immunohistochemical analysis; type: functional, organism-based; settings: dose 25-50 mg/kg
[10] = test system: A549; assay: Induction of cell cycle arrest in human A549 cells assessed as increase in accumulation at G1/G0 phase measured after 48 hrs by flow cytometry analysis; type: functional, cell-based; settings: dose 1-10 µM
[11] = target: Class 1 histone deacetylase (Homo sapiens) (UniProt Q13547+O15379+Q92769+Q9BY41); assay: Inhibition of class 1 HDAC in human A549 cells assessed as increase in histone H3/H4 acetylation at 10 uM measured after 8 hrs by Western blot analysis; type: cell-based
Sequence of Class 1 histone deacetylase (Homo sapiens) (O15379 whole entry, looked up): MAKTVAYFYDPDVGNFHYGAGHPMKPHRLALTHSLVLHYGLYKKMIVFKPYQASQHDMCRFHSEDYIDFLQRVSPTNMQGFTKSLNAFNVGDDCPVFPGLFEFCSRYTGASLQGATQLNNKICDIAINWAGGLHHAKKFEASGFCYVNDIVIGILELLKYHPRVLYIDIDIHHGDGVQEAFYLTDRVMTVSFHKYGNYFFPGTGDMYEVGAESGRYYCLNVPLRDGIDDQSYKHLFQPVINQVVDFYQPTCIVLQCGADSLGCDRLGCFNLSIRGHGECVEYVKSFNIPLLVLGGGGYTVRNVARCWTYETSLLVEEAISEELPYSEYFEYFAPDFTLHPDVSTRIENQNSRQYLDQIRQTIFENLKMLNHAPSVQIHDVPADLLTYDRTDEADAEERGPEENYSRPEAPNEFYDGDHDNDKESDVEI
Sequence of Class 1 histone deacetylase (Homo sapiens) (Q13547 whole entry, looked up): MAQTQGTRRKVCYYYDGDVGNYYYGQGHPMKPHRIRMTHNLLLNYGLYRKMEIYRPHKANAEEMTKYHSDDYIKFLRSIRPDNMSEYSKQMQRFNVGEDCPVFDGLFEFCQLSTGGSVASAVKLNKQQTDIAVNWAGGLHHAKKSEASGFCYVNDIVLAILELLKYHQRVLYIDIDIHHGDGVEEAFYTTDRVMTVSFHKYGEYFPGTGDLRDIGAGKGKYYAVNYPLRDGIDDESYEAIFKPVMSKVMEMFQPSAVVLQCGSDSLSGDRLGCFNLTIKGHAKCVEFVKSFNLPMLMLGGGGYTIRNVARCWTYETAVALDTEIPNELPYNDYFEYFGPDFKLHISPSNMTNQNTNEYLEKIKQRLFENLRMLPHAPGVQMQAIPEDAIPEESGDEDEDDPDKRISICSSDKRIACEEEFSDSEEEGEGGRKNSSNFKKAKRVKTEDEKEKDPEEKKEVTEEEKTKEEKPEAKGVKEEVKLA
Sequence of Class 1 histone deacetylase (Homo sapiens) (Q92769 whole entry, looked up): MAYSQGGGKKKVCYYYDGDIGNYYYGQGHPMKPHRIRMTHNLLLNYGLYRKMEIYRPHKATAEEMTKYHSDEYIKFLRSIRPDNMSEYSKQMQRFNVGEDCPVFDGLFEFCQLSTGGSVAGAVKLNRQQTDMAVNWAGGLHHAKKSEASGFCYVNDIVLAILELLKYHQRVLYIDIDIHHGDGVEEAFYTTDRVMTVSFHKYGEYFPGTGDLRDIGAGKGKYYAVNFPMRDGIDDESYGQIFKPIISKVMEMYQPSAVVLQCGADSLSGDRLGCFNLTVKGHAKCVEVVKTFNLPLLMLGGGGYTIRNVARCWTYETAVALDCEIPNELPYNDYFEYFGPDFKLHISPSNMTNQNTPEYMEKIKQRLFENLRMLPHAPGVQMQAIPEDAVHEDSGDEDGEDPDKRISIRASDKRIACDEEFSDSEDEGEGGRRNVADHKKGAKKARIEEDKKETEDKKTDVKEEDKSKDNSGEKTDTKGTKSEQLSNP
Sequence of Class 1 histone deacetylase (Homo sapiens) (Q9BY41 whole entry, looked up): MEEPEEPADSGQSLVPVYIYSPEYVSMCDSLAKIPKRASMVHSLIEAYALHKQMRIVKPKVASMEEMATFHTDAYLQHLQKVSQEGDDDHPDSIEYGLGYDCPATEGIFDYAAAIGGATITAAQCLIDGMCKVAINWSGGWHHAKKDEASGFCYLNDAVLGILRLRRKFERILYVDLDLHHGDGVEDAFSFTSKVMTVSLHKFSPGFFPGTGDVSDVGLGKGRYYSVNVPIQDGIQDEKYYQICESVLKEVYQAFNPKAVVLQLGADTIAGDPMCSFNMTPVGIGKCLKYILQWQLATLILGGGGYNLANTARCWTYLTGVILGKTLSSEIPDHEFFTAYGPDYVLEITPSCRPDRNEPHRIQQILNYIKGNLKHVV

[12] = test system: A549; assay: Antitumor activity against human A549 cells xenografted in BALB/c mouse assessed as reduction in tumor volume when administered intratumorally for 21 days; type: functional; settings: dose 0.75-1.5 mg, route it(Intratumoral), time 21.0 day
[13] = test system: K562; assay: Induction of apoptosis in human K562 cells assessed as upregulation of BaX protein expression at 10 uM measured after 8 hrs by Western blot analysis; type: functional, cell-based
[14] = test system: A549; assay: Antitumour activity against human A549 cells xenografted in BALB/c mouse assessed as tumor growth inhibition at 50 mg/kg,iv administered for 3 weeks relative to control; type: functional; settings: A549, 504 h, read-out: TGI
[15] = Acute toxicity in BALB/c mouse assessed as effect on body weight at up to 2000 mg/kg, po; type: organism-based; settings: in vivo
[16] = test system: Mus musculus; assay: Toxicity in BALB/c mouse xenografted with human A549 cells assessed as effect on body weight at 0.75 to 1.5 mg, IT(Intratumoral) measured after 21 days; type: organism-based; settings: in vivo, other, 504 h, dose 0.75-1.5 mg, time 21 day

Q: For `O=C(CCCSC[C@H](NC(=O)c1ccccc1)C(=O)Nc1ccccc1)NO`, which inhibition in vivo at 25 mg/kg [1] is on record?
A: 62%

Q: What about the TGI [2] of the same compound?
A: 44%

Q: What about the Activity [3] of the same compound?
A: Non-Toxic

Q: And the MTD [4]?
A: 100 mg/kg

Q: And the Activity [5]?
A: Active

Q: And the inhibition [6]?
A: Active

Q: And the Activity [7]?
A: Active

Q: And the LD50 [8]?
A: > 2000 mg/kg

Q: And the inhibition [9]?
A: Active

Q: And the Activity [10]?
A: Dose-dependent effect

Q: And the inhibition [11]?
A: Active

Q: What about the Activity [12] of the same compound?
A: Dose-dependent effect

Q: And the Activity [13]?
A: Active

Q: What about the inhibition in vivo at 50 mg/kg [14] of the same compound?
A: 75%

Q: What about the Activity [15] of the same compound?
A: Non-Toxic

Q: What about the Activity [16] of the same compound?
A: Non-Toxic
